Where two headings read alike, the source gives them in different places.
Columns and labels:
Assay in all cases: Growth inhibition GI50 in vitro (CCK8/MTT, 72 h)
N87 (HER2 Amp) = type: cell-based, human; settings: Homo sapiens
H1975 (EGFR L858R/T790M) = type: cell-based, human; settings: Homo sapiens, NCI-H1975
PC-9 (EGFR dE746-A750) = type: cell-based, human; settings: Homo sapiens
Calu-3 (Her2 amp) = type: cell-based; settings: Homo sapiens, Calu-3; Table 16; 1000 nM to 0.03 nM serial dilution; read-out: GI50 Calu3 (HER2 amp)
Method: (§1) Human lung adenocarcinoma cell line Calu-3 (ATCC) was cultured with 1×MEM complete medium (10% FBS, 1% double-antibiotics, 1% NEAA (Gibco), 2 mM glutamine and 1 mM of sodium pyruvate). Human breast cancer cell line SK-BR-3 was cultured with McCOY'S5A complete medium (10% FBS). Human colon cancer cell line SNU1040 (HER2 V777M positive) (ATCC) and human bronchoalveolar adenocarcinoma cell line NCI-H1781 (expressing HER2 exon 20 G776VC mutation) (ATCC) were cultured with 1×RPMI1640 complete medium (10% FBS), respectively.
(§2) The suspension cells were collected by centrifugation. The supernatant was discard and the cell pellet was resuspended and counted. Different cell concentrations (5˜10×10^4 cells/mL) were prepared according to the growth cycle of each cell line and then seeded on a 96-well plate (Corning), 100 μL/well. The cells were incubated over night at 37° C., 5% CO2. The compounds were added to the cells on the second day with 2 wells in parallel. The final concentration of organic solvent shall not exceed 1%. The cells were continually incubated for 72 h, and then subjected to MTT assay.
(§3) The present compounds and the reference compounds were dissolved with DMSO (Sigma), respectively. […] The storage concentration of compounds was 10 mM and kept at −20° C. They were diluted by 2 times or 10 times with serial dilution before using.
(§4) Dojindo CCK8 reagent kit was used as MTT assay. […] FC meter was used as microplate reader.
(§5) Adherent cell culture medium was discard and immediately replaced with fresh prepared medium which contains 10% CCK8 reagent (100 μL/well). For the suspension cells, CCK8 was directly added to 10% of the final concentration. The cells were continually incubated for 1˜4 h. When the color of control wells turned to dark yellow, the absorption value was measured at OD450 nm. The cell growth rate was calculated according to the following formula: cell growth rate (%)=100*(T−T0)/(C−T0), T=optical density of drug treatment cell well—optical density of blank control well; T0=optical density of cell well before drug treatment—optical density of blank control well; C=optical density of cell well of solvent control group—optical density of blank control well. […] The experiment was independently repeated 1˜3 times, and subject to biological statistical analysis.

H292 (EGFR WT) = type: cell-based; settings: Homo sapiens, NCI-H292; Table 15; 1000 nM to 0.03 nM serial dilution; read-out: GI50 H292 (EGFR WT)
From the text: EGFR wild type cell lines: human epidermal cancer cell line A431 (EGFR WT, amplification and high expression, from Shanghai Cell Bank of Chinese Academy of Sciences and ATCC), NSCLC cell lines NCI-H460 (EGFR WT, Kras G61H and PI3KCA E545K mutants, ATCC) and NCI-H1299 (EGFR WT, ATCC), melanoma cell line A375 (EGFR WT and BRAF V600E mutant, from Shanghai Cell Bank of Chinese Academy of Sciences, ATCC), human lung cancer cell line NCI-H292 (EGFR WT, from human lung mucoepidermoid carcinoma/lymphatic metastasis, purchased from Shanghai Cell Bank of Chinese Academy of Sciences) were cultured with 1×RPMI1640 complete medium which was supplement with 10% FBS. NSCLC cell line A549 (EGFR WT and Kras G12S mutant, from Shanghai Cell Bank of Chinese Academy of Sciences) was cultured with 1×Ham'S F12K complete medium which was supplement with 10% FBS, 1% double-antibiotics and 2 mM glutamine.
as §2, §3, §4, §5

A549 (EGFR WT) = type: cell-based, human; settings: Homo sapiens, A549
[1] = test system: NCI-H1781 (HER2 exon 20 G776VC mutation); type: cell-based; settings: Homo sapiens, NCI-H1781; Table 16; 1000 nM to 0.03 nM serial dilution; read-out: GI50 H1781 (HER2 G776VC)
Method: as §1
as §2, with “Adherent cells were digested with 0.25% pancreatin-EDTA (Gibco). The suspension” for “The suspension”
as §3, §4
(§6) Adherent cell culture medium was discard and immediately replaced with fresh prepared medium which contains 10% CCK8 reagent (100 μL/well). For the suspension cells, CCK8 was directly added to 10% of the final concentration. The cells were continually incubated for 1˜4 h. When the color of control wells turned to dark yellow, the absorption value was measured at OD450 nm. The cell growth rate was calculated according to the following formula: cell growth rate (%)=100*(T−T0)/(C−T0), T=optical density of drug treatment cell well—optical density of blank control well; T0=optical density of cell well before drug treatment—optical density of blank control well; C=optical density of cell well of solvent control group—optical density of blank control well. The concentration value of 50% inhibition of cell growth (GI50) was calculated. The experiment was independently repeated 1˜3 times, and subject to biological statistical analysis.
(§7) Furthermore, the present compounds (99, 136, 205, 211, 212, 213, 216, 229, 230, 231, 232, 233 and 236) were selected to carry out growth inhibition test for HER2/ERBB2 gene amplified or high expressed or mutant tumor cells. Afatinib and AZD9291 were used for references as second- and third-generation inhibitors of EGFR.
(§8) Each compound started at 1000 nM as an initial concentration and was diluted by 2 times with serial dilution to 0.03 nM. The GI50 value of each compound was calculated according to Test Example 1.3.

[2] = test system: SNU1040 (HER2 V777M positive); type: cell-based; settings: Homo sapiens; Table 16; 1000 nM to 0.03 nM serial dilution; read-out: GI50 SNU-1040 (HER2 V777M)
Method: as §1
as §2, with “Adherent cells were digested with 0.25% pancreatin-EDTA (Gibco). The suspension” for “The suspension”
as §3, §4, §6, §7, §8

[3] = test system: SW48 (EGFR G719S positive); type: cell-based; settings: Homo sapiens, SW48; Table 15; 1000 nM to 0.03 nM serial dilution; read-out: GI50 SW48 (EGFR G719S)
Method: PC-9ER is an acquired Erlotinib resistance cell line of PC-9 cells developed by the investor. […] The four cell lines above were cultured with 1×RPMI1640 complete medium (supplement with 10% FBS). Human colon cancer cell line SW48 (EGFR G719S positive, ATCC). was cultured with L15 complete medium (10% FB S).
as §2, §3, §4, §5
Each compound started at 1000 nM as an initial concentration and was diluted by […] with serial dilution to 0.03 nM.

## C=CC(=O)Nc1cc(Nc2cc(Nc3cccc(C#N)c3)ncn2)c(OC)cc1N(C)CCN(C)C [Compound 229, N-(5-(6-(3-cyano-phenylamino)-pyrimidin-4-yl-amino)-2-((2-dimethylamino-ethyl)-methyl-amino)-4-methoxyl-phenyl)-acrylamide]
N87 (HER2 Amp); Table 13, 72 h, read-out: Range of GI50 N87 (HER2 Amp)
  GI50: < 10 nM
N87 (HER2 Amp); Table 16, 1000 nM to 0.03 nM serial dilution, read-out: GI50 N87 (HER2 amp)
  GI50: 1.95 nM
H1975 (EGFR L858R/T790M); Table 13, 72 h, read-out: Range of GI50 H1975 (EGFR L858R/T790M)
  GI50: 10 to 100 nM
H1975 (EGFR L858R/T790M); Table 15, 1000 nM to 0.03 nM serial dilution, read-out: GI50 H1975 (EGFR L858R/T790M)
  GI50: 19.1 nM
PC-9 (EGFR dE746-A750); Table 13, 72 h, read-out: Range of GI50 PC-9 (EGFR dE746-A750)
  GI50: < 10 nM
PC-9 (EGFR dE746-A750); Table 15, 1000 nM to 0.03 nM serial dilution, read-out: GI50 PC-9 (EGFR dE746-A750)
  GI50: 0.98 nM
Calu-3 (Her2 amp)
  GI50: 1.26 nM
H292 (EGFR WT)
  GI50: > 1000 nM
A549 (EGFR WT); Table 13, 72 h, read-out: Range of GI50 A549 (EGFR WT)
  GI50: > 1000 nM
A549 (EGFR WT); Table 15, 1000 nM to 0.03 nM serial dilution, read-out: GI50 A549 (EGFR WT)
  GI50: > 1000 nM
[1]
  GI50: 0.95 nM
[2]
  GI50: 10.3 nM
[3]
  GI50: 4.92 nM
